Paper PMC9643456, “Matching amino acids membrane preference profile to improve activity of antimicrobial peptides” (Communications Biology, 2022)
Converted amounts (≈) assume the structure as drawn. Like-named read-outs stand apart in the source and are kept apart here. Square brackets hold non-standard residues; d marks the D form. Ends that are not written are not given here. Peptide text beside a SMILES is read from it.

Columns and labels:
[1] = system: human red blood cells; assay: Hemolytic activity; format: cell-based
In short: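 Haemolysis was read as A540 of cleared supernatants after 18 h at 37 °C, with 0% and 100% lysis set by peptide-free PBS and 1% Triton X-100 and melittin as positive control. Human RBCs were at 4% final, peptide serially diluted 100–0.78 μM; three replicates.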

[2] = system: MDR S. aureus; assay: microbe, parasite or virus in culture; conditions: for Minimum inhibitory concentrations, MDR S. aureus: CLSI broth microdilution, CAMHB with 50 mg/L Ca2+, 10 mg/L Mg2+, 5 × 10^5 CFU/ml, 18 h 37 °C, triplicate, strain KCCM 40510
In short: (§1)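 CLSI broth microdilution used CAMHB supplemented with Ca (50 mg/L) and Mg (10 mg/L); runs in triplicate against meropenem/colistin controls.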

[3] = system: MDR A. baumannii; assay: microbe, parasite or virus in culture; conditions: for Minimum inhibitory concentrations, MDR A. baumannii: CLSI broth microdilution, CAMHB with 50 mg/L Ca2+, 10 mg/L Mg2+, 5 × 10^5 CFU/ml, 18 h 37 °C, triplicate, strain ATCC BAA-1605
In short: as §1

[4] = system: MDR P. aeruginosa; assay: microbe, parasite or virus in culture; conditions: for Minimum inhibitory concentrations, MDR P. aeruginosa: CLSI broth microdilution, CAMHB with 50 mg/L Ca2+, 10 mg/L Mg2+, 5 × 10^5 CFU/ml, 18 h 37 °C, no visible turbidity, triplicate, strain CCARM 2180
In short: as §1

[5] = system: MDR E. faecalis; assay: microbe, parasite or virus in culture; conditions: for Minimum inhibitory concentrations, MDR E. faecalis: CLSI broth microdilution, CAMHB with 50 mg/L Ca2+, 10 mg/L Mg2+, 5 × 10^5 CFU/ml, 18 h 37 °C, triplicate, strain ATCC 51575
In short: as §1

[6] = CAMHB plus 0.2% bovine serum albumin and 0.01% acetic acid, values marked * in Table 2

Compound	Hemolysis percent, 25 μM ([1]; red cells of human, 18 h, 25)	Hemolysis percent, 50 μM ([1]; red cells of human, 18 h, 50)	Hemolysis percent, 100 μM ([1]; red cells of human, 18 h, 100)	Minimum inhibitory concentrations, MDR S. aureus [2]	Minimum inhibitory concentrations, MDR A. baumannii [3]	Minimum inhibitory concentrations, MDR P. aeruginosa [4]	Minimum inhibitory concentrations, MDR E. faecalis [5]	MIC in 0.2% albumin and 0.01% AcOH added CLSI standard condition, MDR S. aureus [2, 6]	MIC in 0.2% albumin and 0.01% AcOH added CLSI standard condition, MDR A. baumannii [3, 6]	MIC in 0.2% albumin and 0.01% AcOH added CLSI standard condition, MDR P. aeruginosa [4, 6]	MIC in 0.2% albumin and 0.01% AcOH added CLSI standard condition, MDR E. faecalis [5, 6]	Hemolysis percent, 25 μM [1]	Hemolysis percent, 50 μM [1]	Hemolysis percent, 100 μM [1]
CC(C)C[C@@H](NC(=O)[C@H](N)Cc1c[nH]c2ccccc12)C(=O)N[C@H](CC(C)C)C(=O)N[C@H](Cc1c[nH]c2ccccc12)C(=O)N[C@H](C)C(=O)NCC(=O)N[C@H](C)C(=O)N[C@H](CCCNC(=N)N)C(=O)N[C@H](CCCCN)C(=O)N[C@H](CCCCN)C(=O)N[C@H](CCCNC(=N)N)C(N)=O [WCopW21] (H-[dW][dL][dL][dW][dA]G[dA][dR][dK][dK][dR]-NH2)	0.60%	1.03%	1.74%	> 20 µM	> 20 µM	> 20 µM	> 20 µM	–	–	–	–	–	–	–
WLLLLWRRR-NH2 [AcWL-3]	16.44 ±0.89%	19.80 ±0.76%	36.71 ±3.91%	5 µM	2.5 µM	> 20 µM	5 µM	2.5 µM	0.63 µM	> 20 µM	2.5 µM	–	–	–
NH2 wF l l w i g l r k k r CONH2 [WCopW18]	–	–	–	1.25 µM	1.25 µM	5 µM	2.5 µM	–	–	–	–	1.89%	4.52%	6.74%
CC[C@@H](C)[C@@H](NC(=O)[C@@H](Cc1c[nH]c2ccccc12)NC(=O)[C@@H](CC(C)C)NC(=O)[C@H](N)CC(C)C)C(=O)NCC(=O)N[C@H](CC(C)C)C(=O)N[C@H](CCCNC(=N)N)C(=O)N[C@H](CCCCN)C(=O)N[C@H](CCCCN)C(=O)N[C@H](CCCNC(=N)N)C(N)=O [WCopW13] (H-[dL][dL][dW][dI]G[dL][dR][dK][dK][dR]-NH2)	1.00%	1.13%	1.21%	> 20 µM	5 µM (≈ 6.41 µg/mL)	> 20 µM	> 20 µM	–	–	–	–	–	–	–
CC[C@@H](C)[C@@H](NC(=O)[C@@H](Cc1c[nH]c2ccccc12)NC(=O)[C@@H](C)NC(=O)[C@@H](C)NC(=O)[C@H](N)Cc1c[nH]c2ccccc12)C(=O)NCC(=O)N[C@H](CC(C)C)C(=O)N[C@H](CCCNC(=N)N)C(=O)N[C@H](CCCCN)C(=O)N[C@H](CCCCN)C(=O)N[C@H](CCCNC(=N)N)C(N)=O [WCopW20] (H-[dW][dA][dA][dW][dI]G[dL][dR][dK][dK][dR]-NH2)	0.11%	0.13%	0.45%	> 20 µM	2.5 µM (≈ 3.46 µg/mL)	> 20 µM	> 20 µM	–	–	–	–	–	–	–
